Test results published in US6710044B2, “Technical field” (NeuroSearch A/S, priority 1996, dated 2004).
Values joined by “and” are separate entries in the source; they are usually repeats but may differ in a detail not shown here. Identical values can stand only once.

Tested on: not given
Experiment: not given
Details: not given

Compound | melting point
CC(=O)c1ccc2c(c1)ncn2-c1cccc(C(=NOC(C)C)OCc2ccccn2)c1 [compound 5a3, 5-Acetyl-1-(3-(2-picolyloxycarbonyl)phenyl)benzimidazole O-i-propyl oxime] | 104 to 106 °C
COC(=O)CN1CCN(c2cccc(-n3cnc4cc(-c5ccoc5)ccc43)c2)CC1 | 124 to 125 °C
CCOC(=O)c1ccc2c(c1)ncn2-c1cccc(N2CCN(CCO)CC2)c1.Cl | 233 to 236 °C
CCOC(=O)c1cccc(-n2cnc3cc(-c4ccccc4)ccc32)c1 | 122 to 123 °C
CCON=C(C)c1ccc2c(c1)ncn2-c1cccc(N2CCCC2)c1 | 118 to 120 °C
CC(=O)c1ccc2c(c1)ncn2-c1cccc(C(=NOC(C)C)OC2CCN(C)CC2)c1 | 106 to 107 °C
CCOC(=O)Cc1ccc2c(c1)ncn2-c1cccc(N2CCN(C)CC2)c1.Cl | 180 to 182 °C
N#Cc1ccc2c(c1)ncn2-c1cccc(N2CCCCC2)c1 | 106 to 108 °C
CCOC(=O)c1ccc2c(c1)ncn2-c1cccc(N2CCN(C)CC2)c1 | 86 to 87 °C
COC(=O)c1cccc(-n2cnc3cc(-c4ccno4)ccc32)c1 | 190 to 191 °C
CCOC(=O)CN1CCN(c2cccc(-n3cnc4cc(C(=O)OCC)ccc43)c2)CC1.Cl | 196 to 200 °C
CN1CCCC(c2cccc(-n3cnc4cc(C=NO)ccc43)c2)C1 (stereo not shown) [compound 3b4, 5-Formyl-1-(3-(1-methyl-3-piperidinyl)phenyl)benzimidazole oxime] | 214 to 218 °C
CN1CCCC(c2cccc(-n3cnc4cc(C(=O)OCC5CC5)ccc43)c2)C1 (stereo not shown) | 111 to 113 °C
COC(=O)c1ccc2c(c1)ncn2-c1cccc(N2CCN(C)CC2)c1 | 119 to 121 °C
COC(=O)c1ccc2c(c1)ncn2-c1cccc(C2CN(C(C)=O)CCN2)c1 (stereo not shown) | 189 to 191 °C
CC(=NOC(C)C)c1ccc2c(c1)ncn2-c1cccc(C2CCCN(C)C2)c1.Cl (stereo not shown) | 48 to 55 °C
COC(=O)CON=C(C)c1ccc2c(c1)ncn2-c1cccc(N2CCN(CCO)CC2)c1 [compound 5c1, 5-Acetyl-1-(3-(4-(2-hydroxyethyl)piperazin-1-yl)phenyl)benzimidazole O-(methoxy-carbonylmethyl) oxime] | 117 to 119 °C
CN1CCCC(c2cccc(-n3cnc4cc(-c5nc(C6CC6)no5)ccc43)c2)C1.Cl (stereo not shown) | 184 to 190 °C
CN1CCN(c2cccc(-n3cnc4cc(-c5ccoc5)ccc43)c2)CC1 | 129 to 130 °C
CN1CCCC(c2cccc(-n3cnc4cc(C(C)(C)C)ccc43)c2)C1.Cl (stereo not shown) | 200 °C
COC(=O)C(C)(C)ON=C(C)c1ccc2c(c1)ncn2-c1cccc(C2CCCN(C)C2)c1 (stereo not shown) | 113 to 116 °C and 113 to 115 °C
COC(=O)CON=C(C)c1ccc2c(c1)ncn2-c1cccc(C2CCCN(C)C2)c1 (stereo not shown) | 104 to 106 °C

Compound | melting point
CCCOC(=O)c1ccc2c(c1)ncn2-c1cccc(N2CCCC2)c1 | 170 to 172 °C
CCOC(=O)c1cccc(-n2cnc3cc(C4CCOC4)ccc32)c1.Cl (stereo not shown) | 168 to 171 °C
COC(=O)C=Cc1ccc2c(c1)ncn2-c1cccc(N2CCN(C)CC2)c1 | 138 to 140 °C
CN1CCN(c2cccc(-n3cnc4cc(C#N)ccc43)c2)CC1 | 177 to 179 °C
COC(=O)CON=C(C)N1CCN(c2cccc(-n3cnc4cc(C(C)=O)ccc43)c2)CC1 | 137 to 139 °C
CCOC(=O)c1ccc2c(c1)ncn2-c1cccc(N2CCN(CC(=O)OC)CC2)c1.Cl [compound 4a5, 5-(Ethoxycarbonyl)-1-(3-(4-(methoxycarbonylmethyl)piperazin-1-yl)phenyl)-benzimidazole, hydrochloride] | 185 to 186 °C
CN1CCCC(c2cccc(-n3cnc4cc(C#N)ccc43)c2)C1.Cl (stereo not shown) | 158 to 160 °C
CN1CCN(c2cccc(-n3cnc4cc(-c5ccccc5)ccc43)c2)CC1 | 131 to 132 °C
CC(=O)c1ccc2c(c1)ncn2-c1cccc(N2CCN(C(C)=NO)CC2)c1 | 240 to 241 °C
CCOC(=O)c1cccc(-n2cnc3cc(-c4ccoc4)ccc32)c1 | 87 to 89 °C
ON=Cc1ccc2c(c1)ncn2-c1cccc(N2CCCC2)c1 | 242 to 244 °C
CN1CCC(OC(=O)c2cccc(-n3cnc4cc(-c5ccccc5)ccc43)c2)CC1.Cl | 187 to 188 °C
CCOC(CN1CCN(c2cccc(-n3cnc4cc(C(C)=O)ccc43)c2)CC1)=NO | 154 to 156 °C
CN1CCN(c2cccc(-n3cnc4cc(C=NO)ccc43)c2)CC1 | 224 to 227 °C
CC(=NOC(C)C)c1ccc2c(c1)ncn2-c1cccc(N2CCN(CCO)CC2)c1.Cl | 165 to 169 °C
CCON=C(C)c1ccc2c(c1)ncn2-c1cccc(N2CCCCC2)c1 | 88 to 89 °C
CC(=O)c1ccc2c(c1)ncn2-c1cccc(N2CCN(C(C)=NOC(C)C)CC2)c1.Cl | 160 to 163 °C
CN1CCCC(c2cccc(-n3cnc4cc(-c5ccoc5)ccc43)c2)C1 (stereo not shown) | 96 to 97 °C
CC(C)OC(=O)c1ccc2c(c1)ncn2-c1cccc(N2CCN(C)CC2)c1 | 110 to 111 °C
CCCON=C(CN1CCN(c2cccc(-n3cnc4cc(C(C)=O)ccc43)c2)CC1)OC | 120 to 122 °C
CCON=C(C)c1ccc2c(c1)ncn2-c1cccc(C2CCCN(C)C2)c1.Cl (stereo not shown) [compound 3f7, 5-acetyl-1-(3-(1-methylpiperidin-3-yl)phenyl)benzimidazole O-ethyl oxime hydrochloride] | 112 to 114 °C
CCOC(=O)C(=CN1CCN(c2cccc(-n3cnc4cc(-c5ccoc5)ccc43)c2)CC1)C(=O)OCC [compound 6c6, 5-(3-Furanyl)-1-(3-(4-(2,2-bis(ethoxycarbonyl)ethenyl)piperazin-1-yl)phenyl)-benzimidazole] | 97 to 102 °C

Compound | melting point
CC(C)OC(=O)c1ccc2c(c1)ncn2-c1cccc(N2CCCCC2)c1 | 160 to 161 °C
COC(=O)C(C)(C)ON=C(C)N1CCN(c2cccc(-n3cnc4cc(C(C)=O)ccc43)c2)CC1 | 119 to 120 °C
COC(=O)C=CN1CCN(c2cccc(-n3cnc4cc(-c5ccoc5)ccc43)c2)CC1 | 131 to 133 °C
ON=Cc1ccc2c(c1)ncn2-c1cccc(N2CCCCC2)c1 | 213 to 214 °C
CCOC(=O)c1ccc2c(c1)ncn2-c1cccc(N2CCN(C(C)=O)CC2)c1 | 155 to 156 °C
CCOC(=O)CN1CCN(c2cccc(-n3cnc4cc(-c5ccoc5)ccc43)c2)CC1 | 110 to 112 °C
CCOC(=O)CON=C(C)c1ccc2c(c1)ncn2-c1cccc(C2CCCN(C)C2)c1.Cl (stereo not shown) | 73 to 75 °C
CCOC(=O)C=Cc1ccc2c(c1)ncn2-c1cccc(N2CCN(C)CC2)c1 | 133 to 134 °C
Cl.O=C(OCc1cccnc1)c1cccc(-n2cnc3cc(-c4ccccc4)ccc32)c1 | 195 to 197 °C
CN1CCCC(c2cccc(-n3cnc4cc(-c5ccccc5)ccc43)c2)C1 (stereo not shown) | 42 to 44 °C
COC(=O)C(C)(C)ON=Cc1ccc2c(c1)ncn2-c1cccc(N2CCN(C)CC2)c1.Cl | 199 to 201 °C
CON=Cc1ccc2c(c1)ncn2-c1cccc(N2CCCCC2)c1 | 107 to 108 °C
CCOC(=O)C=Cc1ccc2c(c1)ncn2-c1cccc(N2CCCCC2)c1 | 85 to 87 °C
CCON=C(CC1CCN(c2cccc(-n3cnc4cc(C(C)=O)ccc43)c2)CC1)OCC [compound 5d2, 5-Acetyl-1-(3-(4-(ethoxycarbonylmethyl)piperidin-1-yl)phenyl)benzimidazole O-ethyl oxime] | 119 to 120 °C
CC(C)ON=Cc1ccc2c(c1)ncn2-c1cccc(N2CCCCC2)c1 | 127 to 128 °C
CCON=C(C)c1ccc2c(c1)ncn2-c1cccc(N2CCN(C)CC2)c1.Cl | 62 to 63 °C
CC(C)(C)OC(=O)N1CCN(c2cccc(-n3cnc4cc(-c5ccoc5)ccc43)c2)CC1 | 162 to 164 °C
CC(=O)c1ccc2c(c1)ncn2-c1cccc(C(=NOC(C)C)OC2CCCN(C)C2)c1 (stereo not shown) | 83 to 84 °C
CN1CCCC(OC(=O)c2cccc(-n3cnc4cc(-c5ccccc5)ccc43)c2)C1.Cl (stereo not shown) | 180 to 191 °C
CCOC(=O)C(=CN1CCN(c2cccc(-n3cnc4cc(C(C)=O)ccc43)c2)CC1)C(=NOC(C)C)OCC | 128 to 129 °C

Molecular target: benzodiazepine receptor sites (GABAA receptor complex)
Experiment: In vitro inhibition of 3H-flunitrazepam (3H-FNM) binding, cerebral cortex membranes
Details: inhibition of specific binding of 3H-FNM (1 nM), rat cerebral cortex membranes, 40 min at 2° C.
Experimental: The affinity of various potential ligands for the benzodiazepine receptor sites can thus be evaluated by estimating the ability of test compounds to displace ^3H-flunitrazepam.
Tissue Preparation: Preparations are performed at 0-4° C. unless otherwise indicated.
Cerebral cortex from male Wistar rats (150-200 g) is homogenized for 5-10 sec in 20 ml Tris-HCl (30 mM, pH 7.4) using an Ultra-Turrax homogenizer. The suspension is centrifuged at 27,000×g for 15 min, and the pellet is washed three times with buffer (centrifuged at 27,000×g for 10 min). The washed pellet is homogenized in 20 ml of buffer and incubated on a water bath (37° C.) for 30 min to remove endogenous GABA and then centrifuged for 10 min at 27,000×g. The pellet is then homogenized in buffer and centrifuged for 10 min at 27,000×g. The final pellet is resuspended in 30 ml buffer and the preparation is frozen and stored at −20° C.
Assay: The membrane preparation is thawed and centrifuged at 2° C. for 10 min at 27,000×g. The pellet is washed twice with 20 ml 50 mM Tris-citrate, pH 7.1 using an Ultra-Turrax homogenizer and centrifuged for 10 min at 27,000×g. The final pellet is resuspended in 50 mM Tris-citrate, pH 7.1 (500 ml buffer per g of original tissue), and then used for binding assays. Aliquots of 0.5 ml tissue are added to 25 μl of test solution and 25 μl of ^3H-FNM (1 nM, final concentration), mixed and incubated for 40 min at 2° C. Non-specific binding is determined using clonazepam (1 μM, final concentration). After incubation the samples are added 5 ml of ice-cold buffer and poured directly onto Whatman GF/C glass fibre filters under suction and immediately washed with 5 ml ice-cold buffer. The amount of radioactivity on the filters is determined by conventional liquid scintillation counting. Specific binding is total binding minus non-specific binding.
The test value is calculated as the IC50 (the concentration (nM) of the test substance which inhibits the specific binding of ^3H—FNM by 50%).

Compound | IC50
CN1CCCC(c2cccc(-n3cnc4cc(C=NO)ccc43)c2)C1 (stereo not shown) [compound 3b4, 5-Formyl-1-(3-(1-methyl-3-piperidinyl)phenyl)benzimidazole oxime] | 4 nM
COC(=O)CON=C(C)c1ccc2c(c1)ncn2-c1cccc(N2CCN(CCO)CC2)c1 [compound 5c1, 5-Acetyl-1-(3-(4-(2-hydroxyethyl)piperazin-1-yl)phenyl)benzimidazole O-(methoxy-carbonylmethyl) oxime] | 19 nM
CCOC(=O)c1ccc2c(c1)ncn2-c1cccc(N2CCN(CC(=O)OC)CC2)c1.Cl [compound 4a5, 5-(Ethoxycarbonyl)-1-(3-(4-(methoxycarbonylmethyl)piperazin-1-yl)phenyl)-benzimidazole, hydrochloride] | 50 nM
CN1CCCC(c2cccc(-n3cnc4cc(C(=O)OCc5cccnc5)ccc43)c2)C1 (stereo not shown) [compound 4h, 5-(3-Picolyloxycarbonyl)-1-(3-(1-methylpiperidin-3-yl)phenyl)benzimidazole] | 80 nM
CCON=C(C)c1ccc2c(c1)ncn2-c1cccc(C2CCCN(C)C2)c1.Cl (stereo not shown) [compound 3f7, 5-acetyl-1-(3-(1-methylpiperidin-3-yl)phenyl)benzimidazole O-ethyl oxime hydrochloride] | 18 nM
CCOC(=O)C(=CN1CCN(c2cccc(-n3cnc4cc(-c5ccoc5)ccc43)c2)CC1)C(=O)OCC [compound 6c6, 5-(3-Furanyl)-1-(3-(4-(2,2-bis(ethoxycarbonyl)ethenyl)piperazin-1-yl)phenyl)-benzimidazole] | 7 nM
